Experiments:
Balb/C mice [1] = test: Cecal ligation and puncture (CLP) polymicrobial sepsis, survival (protocol A); format: in vivo
Procedure: (§1) In vivo studies were performed in accordance with National Institutes of Health guidelines and with the approval of the North Shore-Long Island Jewish Health System’s Institutional Animal Care and Use Committee (IACUC). In mice, polymicrobial sepsis was induced by surgical ligation and perforation of the cecum, a widely used technique known as CLP. Briefly, male BALB/c mice (7–8 weeks old, 20–25 g) were anesthetized with a mixture of ketamine (100 mg/kg) and xylazine (8 mg/kg) intramuscularly, and a 15 mm midline incision was made to expose the cecum. After ligation of the cecum with a 6.0 silk suture below the junction of the ileo–cecal valve, the ligated cecal stump was perforated once with a 22-gauge needle. […] Survival was monitored twice daily for 2 weeks, at which time survivors were killed (CO2 asphyxia). […] Survival was monitored twice daily after surgery. […]
Kaplan–Meier analysis was used to determine statistical significance of the differences in survival of mice. p ≦ 0.05 was considered significant. Values in the figures were expressed as mean(±)S.E.M. of two or three independent experiments, where each experimental point was derived from duplicates or triplicates. […]
Fig. 6 MECO-1 rescues mice from lethal sepsis. a Endotoxin. […] Survival was monitored daily for 2 weeks. […] Animals were monitored for survival for 14 days. […]

Balb/C mice [2] = test: CLP sepsis, survival and serum cytokines at 40 h (protocol B); format: in vivo; details: one dose 5 mg/kg i.p. at 24 h
Procedure: as §1, with “needle. The cecum was then gently squeezed to extrude a small amount of feces through the perforation site. The cecum was restored to its normal intra-abdominal position, and the laparotomy was closed with 6.0 silk sutures. Immediately after CLP surgery, all animals were resuscitated with normal saline solution (subcutaneously 20 ml/kg body weight), and given a single dose of antibiotics (primaxin 0.5 mg/kg). In sham operated animals, the cecum was temporarily ligated, but the bowel was not punctured; these animals also received antibiotic treatment and resuscitation fluid.” for “needle.”
The levels of HMGB1 in the culture medium or murine serum were measured by western immunoblotting as previously described.[30] […] The relative band intensity was quantified by using the NIH image 1.59 software. The levels of HMGB1 (expressed as % maximum effect) were calculated with reference to standard curves generated with purified rHMGB1 and expressed as mean ± SEM of four experiments.
Concentrations of TNF and IL-6 were each determined using a commercially available enzyme-linked immunosorbent assay (ELISA) kit (R&D System Inc.) as previously described.[34] The levels of TNF or IL-6 were calculated with reference to standard curves. […]

Substance: alpha-melanocyte-stimulating hormone [alpha-MSH]
- survival at day 14 after CLP (Balb/C mice [1]; 5 mg/kg (high dose) i.p. twice daily, six doses starting 24 h post-surgery, n = 10, saline 15%): around 50%
- overall survival after CLP polymicrobial sepsis (Balb/C mice [1]; three experiments pooled, untreated 23% (9 of 39), alpha-MSH 15 of 22, MECO-1 42 of 64): 68%
- serum TNF and IL-6 in survivors at 40 h after CLP (Balb/C mice [2]; ELISA, p < 0.05 vs CLP alone): significantly muted responses
- animals surviving to 40 h after CLP (Balb/C mice [2]; n = 10, saline four out of nine): Six of ten
- animals with elevated serum HMGB1 at 40 h after CLP (Balb/C mice [2]; western blot, saline three of four): none

Source: paper PMC5684143, “New melanocortin-like peptide of E. coli can suppress inflammation via the mammalian melanocortin-1 receptor (MC1R): possible endocrine-like function for microbes of the gut” (NPJ Biofilms and Microbiomes, 2017)
